Measurements reported in ChEMBL document CHEMBL1201862, “PubChem BioAssay data set” (2004).
Active and inactive are the calls of the source.

Legend:
[1] = target: Prothrombin (Homo sapiens, UniProt P00734); test: Thrombin 1536 HTS Dose Response Confirmation. [Related pubchem assays: 1046 (Thrombin 1536 HTS; hits were confirmed in this assay)]; assay type: functional
[2] = target: T1, Coagulation factor XII (Homo sapiens, UniProt P00748); assay type: functional;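 further: activated factor XIIa alpha cleaving a fluorogenic AMC peptide substrate; inhibitor potency from loss of enzyme activity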
T1 sequence (P00748 whole entry): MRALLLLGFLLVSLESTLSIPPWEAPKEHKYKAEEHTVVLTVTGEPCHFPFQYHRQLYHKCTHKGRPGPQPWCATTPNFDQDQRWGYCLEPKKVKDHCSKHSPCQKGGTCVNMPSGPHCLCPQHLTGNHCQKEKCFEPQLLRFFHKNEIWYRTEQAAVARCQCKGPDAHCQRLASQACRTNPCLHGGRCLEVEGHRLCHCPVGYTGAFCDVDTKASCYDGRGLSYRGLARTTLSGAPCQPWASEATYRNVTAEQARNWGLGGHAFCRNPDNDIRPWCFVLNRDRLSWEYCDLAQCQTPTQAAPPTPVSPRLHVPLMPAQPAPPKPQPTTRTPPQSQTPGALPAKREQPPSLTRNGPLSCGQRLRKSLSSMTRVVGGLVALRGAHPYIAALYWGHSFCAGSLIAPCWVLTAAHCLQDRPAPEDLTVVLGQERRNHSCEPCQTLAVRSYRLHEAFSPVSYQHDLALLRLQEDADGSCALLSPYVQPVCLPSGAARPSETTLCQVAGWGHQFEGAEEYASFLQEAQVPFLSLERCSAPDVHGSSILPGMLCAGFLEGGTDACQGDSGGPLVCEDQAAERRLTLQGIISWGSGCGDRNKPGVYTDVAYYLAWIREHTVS

[3] = target: G-protein coupled receptor 55 (Homo sapiens, UniProt Q9Y2T6); test: GPR55 antagonists blocking LPI-driven arrestin recruitment, primary screen, imaging, U2OS, beta-arrestin-GFP, LPI agonist (AID 2013); assay type: functional;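 further: antagonist potency measured as reduced agonist-driven arrestin aggregation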
[4] = target: T2, Replicative DNA helicase DnaB (Mycobacterium tuberculosis, UniProt P9WMR3); test: DnaB intein splicing inhibitors, dose response, biochemical, cell-free fluorescence (AID 449749); assay type: functional
T2 sequence (P9WMR3 whole entry): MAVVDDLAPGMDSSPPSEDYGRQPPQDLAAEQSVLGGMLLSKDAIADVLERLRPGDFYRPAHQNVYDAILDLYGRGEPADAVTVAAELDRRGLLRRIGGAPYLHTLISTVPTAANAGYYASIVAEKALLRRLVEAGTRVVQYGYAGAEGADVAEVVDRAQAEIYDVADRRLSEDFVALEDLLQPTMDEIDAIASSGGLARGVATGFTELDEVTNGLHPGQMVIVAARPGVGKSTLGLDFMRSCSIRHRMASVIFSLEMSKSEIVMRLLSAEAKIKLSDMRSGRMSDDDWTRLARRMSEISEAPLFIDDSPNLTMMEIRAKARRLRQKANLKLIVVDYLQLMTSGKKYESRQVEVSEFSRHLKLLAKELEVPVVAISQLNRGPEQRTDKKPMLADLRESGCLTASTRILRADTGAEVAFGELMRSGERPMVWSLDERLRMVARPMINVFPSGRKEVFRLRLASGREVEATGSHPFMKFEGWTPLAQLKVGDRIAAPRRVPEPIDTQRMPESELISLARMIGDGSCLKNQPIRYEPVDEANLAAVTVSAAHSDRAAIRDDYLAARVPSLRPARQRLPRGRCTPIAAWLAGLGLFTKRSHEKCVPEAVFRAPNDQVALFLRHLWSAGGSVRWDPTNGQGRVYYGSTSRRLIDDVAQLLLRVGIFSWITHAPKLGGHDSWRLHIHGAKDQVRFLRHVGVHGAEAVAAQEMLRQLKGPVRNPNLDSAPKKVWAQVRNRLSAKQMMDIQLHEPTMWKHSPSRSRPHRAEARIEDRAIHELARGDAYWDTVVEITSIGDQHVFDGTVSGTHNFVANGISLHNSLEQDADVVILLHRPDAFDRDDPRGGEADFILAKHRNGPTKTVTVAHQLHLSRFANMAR

[5] = target: Nonstructural protein 1 (Influenza A virus, UniProt Q194T2); assay type: functional, Influenza A virus (A/California/07/2009(H1N1))
[6] = target: T3, Protein RecA (Mycobacterium tuberculosis, UniProt P9WHJ3); test: Fluorescence Cell-Free Homogeneous Dose Retest to Identify Inhibitors of RecA-Intein Splicing Activity. [Related pubchem assays (depositor defined):AID2097, AID2223, AID489010, AID492950]; assay type: functional
T3 sequence (P9WHJ3 whole entry): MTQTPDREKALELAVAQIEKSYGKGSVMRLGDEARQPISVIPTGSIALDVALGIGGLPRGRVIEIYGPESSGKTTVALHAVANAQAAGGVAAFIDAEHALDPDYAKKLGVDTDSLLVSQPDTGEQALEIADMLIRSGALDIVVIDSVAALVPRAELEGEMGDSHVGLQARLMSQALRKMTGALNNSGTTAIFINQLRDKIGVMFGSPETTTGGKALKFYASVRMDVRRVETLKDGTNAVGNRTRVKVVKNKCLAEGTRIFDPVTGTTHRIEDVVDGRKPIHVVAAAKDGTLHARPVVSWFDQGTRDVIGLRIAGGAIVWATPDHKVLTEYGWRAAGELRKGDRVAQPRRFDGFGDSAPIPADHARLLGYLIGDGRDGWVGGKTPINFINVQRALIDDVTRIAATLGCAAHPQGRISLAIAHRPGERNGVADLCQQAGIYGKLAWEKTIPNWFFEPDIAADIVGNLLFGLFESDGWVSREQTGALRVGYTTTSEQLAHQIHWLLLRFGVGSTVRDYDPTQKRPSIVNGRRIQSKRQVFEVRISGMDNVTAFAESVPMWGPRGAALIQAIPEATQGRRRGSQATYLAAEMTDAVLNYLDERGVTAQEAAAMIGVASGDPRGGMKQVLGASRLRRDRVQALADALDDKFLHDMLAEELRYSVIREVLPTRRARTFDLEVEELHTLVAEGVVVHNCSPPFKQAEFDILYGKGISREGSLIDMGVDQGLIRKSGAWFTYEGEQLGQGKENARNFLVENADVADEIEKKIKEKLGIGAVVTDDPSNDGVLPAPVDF

[7] = target: SUMO-activating enzyme (Homo sapiens, UniProt Q9UBT2); test: SUMOylation inhibitor hit validation, confirmation, SUMOylation inhibitor project, biochemical, AlphaScreen (AID 2018); assay type: functional
[8] = Luminescence Cell-Based Dose Response HTS to Identify Activators of Luciferase Translation or Activity in H4 […] Cells. [Related pubchem assays: 1829 (Project Summary), 1814 (Primary HTS)]; assay type: functional
[9] = test system: H4; test: Luminescence Cell-Based Dose Response HTS to Identify Activators of 5'UTR Stem-Loop Driven Prion Protein mRNA Translation in H4 Neuroglioblastoma Cells. [Related pubchem assays: 1829 (Project Summary), 1814 (Primary HTS)]; assay type: functional; conditions: Homo sapiens
[10] = test system: Streptococcus sp. 'group A'; test: growth inhibition of control SK(-) GAS strain, dose response, counter-screen for streptokinase expression inhibitor project, luminescence, kanamycin, BacTiterGlo, confirmation (AID 1900); assay type: functional, organism-based
[11] = target: T4, Streptokinase A (Streptococcus pyogenes serotype M1, UniProt P10520); test: S. pyogenes streptokinase expression inhibitors, potency, dose response, plasminogen activation absorbance, OD405 (AID 1914); assay type: functional, Streptococcus pyogenes M1 GAS;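 further: secreted streptokinase activity via plasminogen activation per viability signal from cell pellet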
T4 sequence (P10520 whole entry): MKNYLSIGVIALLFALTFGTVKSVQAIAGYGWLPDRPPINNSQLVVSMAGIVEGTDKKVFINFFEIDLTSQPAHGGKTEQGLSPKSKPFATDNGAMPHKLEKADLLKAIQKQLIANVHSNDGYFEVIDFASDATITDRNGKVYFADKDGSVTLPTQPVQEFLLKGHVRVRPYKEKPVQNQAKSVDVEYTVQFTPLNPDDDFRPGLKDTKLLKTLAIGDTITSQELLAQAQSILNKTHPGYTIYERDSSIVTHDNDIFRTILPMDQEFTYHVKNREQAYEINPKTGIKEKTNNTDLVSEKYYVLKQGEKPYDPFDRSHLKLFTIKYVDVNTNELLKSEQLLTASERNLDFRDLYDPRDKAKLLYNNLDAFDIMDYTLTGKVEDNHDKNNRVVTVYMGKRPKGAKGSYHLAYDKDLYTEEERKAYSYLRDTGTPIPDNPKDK

[12] = test system: Streptococcus; test: Group A Streptococcus viability loss, dose response, counter-screen for streptokinase expression inhibitor project, luminescence, BacTiterGlo (AID 1915); assay type: functional, organism-based;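 further: potency for reduction of bacterial viability or growth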
[13] = HEp-2 cell cytotoxicity, dose response, cytotoxicity control for RSV inhibitor project, HTS (AID 2410); assay type: functional; conditions: human respiratory syncytial virus
[14] = target: T5, ORF 73 (Human herpesvirus 8, UniProt O40947); test: inhibitors of C-LANA binding to LBS DNA, dose response, biochemical, fluorescence polarization, cherry-picked samples (AID 504725); set-up: species or system Human gammaherpesvirus 8;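 further: fluorescence polarization of a labeled DNA duplex reporting LANA DNA binding; potency is for inhibitors that block LANA binding to the DNA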
T5 sequence (O40947 whole entry): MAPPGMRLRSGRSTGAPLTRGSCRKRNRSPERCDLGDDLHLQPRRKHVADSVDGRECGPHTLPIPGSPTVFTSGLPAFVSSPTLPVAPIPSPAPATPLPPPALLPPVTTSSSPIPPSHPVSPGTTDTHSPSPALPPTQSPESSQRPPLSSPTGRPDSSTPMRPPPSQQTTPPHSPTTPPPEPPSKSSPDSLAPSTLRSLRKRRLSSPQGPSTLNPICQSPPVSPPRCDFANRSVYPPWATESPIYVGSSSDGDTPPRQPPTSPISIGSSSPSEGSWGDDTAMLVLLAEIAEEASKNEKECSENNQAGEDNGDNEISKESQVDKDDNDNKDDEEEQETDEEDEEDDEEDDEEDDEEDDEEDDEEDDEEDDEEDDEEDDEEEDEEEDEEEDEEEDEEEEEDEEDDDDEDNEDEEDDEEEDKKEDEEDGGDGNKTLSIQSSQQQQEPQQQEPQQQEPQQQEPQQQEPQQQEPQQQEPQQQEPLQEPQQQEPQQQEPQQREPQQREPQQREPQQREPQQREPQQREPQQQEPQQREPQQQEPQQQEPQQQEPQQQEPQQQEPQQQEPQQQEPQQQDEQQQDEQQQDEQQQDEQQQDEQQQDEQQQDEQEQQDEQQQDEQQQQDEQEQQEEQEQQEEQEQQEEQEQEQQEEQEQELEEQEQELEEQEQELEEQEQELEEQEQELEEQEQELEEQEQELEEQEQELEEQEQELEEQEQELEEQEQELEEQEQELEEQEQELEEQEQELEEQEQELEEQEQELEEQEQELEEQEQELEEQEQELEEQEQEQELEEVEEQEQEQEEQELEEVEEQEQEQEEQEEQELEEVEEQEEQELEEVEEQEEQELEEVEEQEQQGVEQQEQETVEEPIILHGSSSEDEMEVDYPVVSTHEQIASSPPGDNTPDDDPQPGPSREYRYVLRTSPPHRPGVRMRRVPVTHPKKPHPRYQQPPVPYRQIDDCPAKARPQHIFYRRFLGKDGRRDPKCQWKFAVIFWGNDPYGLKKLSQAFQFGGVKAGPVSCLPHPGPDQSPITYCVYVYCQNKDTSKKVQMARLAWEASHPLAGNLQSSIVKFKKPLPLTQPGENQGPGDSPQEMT

[15] = target: Glyceraldehyde-3-phosphate dehydrogenase (Homo sapiens, UniProt P04406)
[16] = target: T6, Alkaline phosphatase, tissue-nonspecific isozyme (Homo sapiens, UniProt P05186); test: human TNAP enzyme inhibitors, SAR follow-up, biochemical, luminescent, dose response (AID 1056)
T6 sequence (P05186 whole entry): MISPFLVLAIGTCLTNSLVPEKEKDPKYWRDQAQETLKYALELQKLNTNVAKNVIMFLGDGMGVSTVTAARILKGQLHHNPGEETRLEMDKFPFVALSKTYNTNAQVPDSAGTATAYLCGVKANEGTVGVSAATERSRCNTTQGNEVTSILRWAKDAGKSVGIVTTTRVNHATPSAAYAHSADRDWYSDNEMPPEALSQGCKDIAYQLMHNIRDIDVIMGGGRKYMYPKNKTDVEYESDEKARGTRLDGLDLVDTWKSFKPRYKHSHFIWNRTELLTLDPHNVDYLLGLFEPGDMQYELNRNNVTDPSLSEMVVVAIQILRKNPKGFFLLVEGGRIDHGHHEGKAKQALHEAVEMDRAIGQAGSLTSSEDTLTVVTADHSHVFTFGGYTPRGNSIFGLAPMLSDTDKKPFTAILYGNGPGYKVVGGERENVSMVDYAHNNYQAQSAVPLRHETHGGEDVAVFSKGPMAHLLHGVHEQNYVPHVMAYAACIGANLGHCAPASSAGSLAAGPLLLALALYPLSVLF

Chain of Glyceraldehyde-3-phosphate dehydrogenase (P04406 whole entry): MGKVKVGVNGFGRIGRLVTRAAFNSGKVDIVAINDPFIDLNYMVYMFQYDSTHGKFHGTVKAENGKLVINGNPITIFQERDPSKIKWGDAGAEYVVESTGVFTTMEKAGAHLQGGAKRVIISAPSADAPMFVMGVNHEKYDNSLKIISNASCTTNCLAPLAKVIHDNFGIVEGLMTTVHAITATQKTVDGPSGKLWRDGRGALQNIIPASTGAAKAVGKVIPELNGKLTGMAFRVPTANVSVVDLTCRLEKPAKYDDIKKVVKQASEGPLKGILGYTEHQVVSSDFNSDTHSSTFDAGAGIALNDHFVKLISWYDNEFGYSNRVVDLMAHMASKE
Chain of G-protein coupled receptor 55 (Q9Y2T6 whole entry): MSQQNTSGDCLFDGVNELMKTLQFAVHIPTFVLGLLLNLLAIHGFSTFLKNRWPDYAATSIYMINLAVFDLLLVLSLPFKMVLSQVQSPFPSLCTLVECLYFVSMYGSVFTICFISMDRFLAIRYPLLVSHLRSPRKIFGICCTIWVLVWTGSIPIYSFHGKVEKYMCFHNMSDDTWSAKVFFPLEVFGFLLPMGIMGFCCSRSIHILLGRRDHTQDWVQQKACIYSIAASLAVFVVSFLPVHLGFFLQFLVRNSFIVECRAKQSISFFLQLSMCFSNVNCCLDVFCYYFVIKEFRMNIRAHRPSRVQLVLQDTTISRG
Chain of SUMO-activating enzyme (Q9UBE0 whole entry): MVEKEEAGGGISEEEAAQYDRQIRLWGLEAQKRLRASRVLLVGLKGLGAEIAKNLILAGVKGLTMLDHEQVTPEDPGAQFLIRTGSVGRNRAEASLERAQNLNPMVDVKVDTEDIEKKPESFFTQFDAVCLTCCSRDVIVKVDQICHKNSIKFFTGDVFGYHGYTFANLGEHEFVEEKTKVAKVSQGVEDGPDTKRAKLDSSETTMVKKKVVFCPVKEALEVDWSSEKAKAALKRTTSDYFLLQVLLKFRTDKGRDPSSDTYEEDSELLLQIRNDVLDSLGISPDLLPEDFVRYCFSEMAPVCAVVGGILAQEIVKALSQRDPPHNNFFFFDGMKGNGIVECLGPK
Chain of SUMO-activating enzyme (Q9UBT2 whole entry): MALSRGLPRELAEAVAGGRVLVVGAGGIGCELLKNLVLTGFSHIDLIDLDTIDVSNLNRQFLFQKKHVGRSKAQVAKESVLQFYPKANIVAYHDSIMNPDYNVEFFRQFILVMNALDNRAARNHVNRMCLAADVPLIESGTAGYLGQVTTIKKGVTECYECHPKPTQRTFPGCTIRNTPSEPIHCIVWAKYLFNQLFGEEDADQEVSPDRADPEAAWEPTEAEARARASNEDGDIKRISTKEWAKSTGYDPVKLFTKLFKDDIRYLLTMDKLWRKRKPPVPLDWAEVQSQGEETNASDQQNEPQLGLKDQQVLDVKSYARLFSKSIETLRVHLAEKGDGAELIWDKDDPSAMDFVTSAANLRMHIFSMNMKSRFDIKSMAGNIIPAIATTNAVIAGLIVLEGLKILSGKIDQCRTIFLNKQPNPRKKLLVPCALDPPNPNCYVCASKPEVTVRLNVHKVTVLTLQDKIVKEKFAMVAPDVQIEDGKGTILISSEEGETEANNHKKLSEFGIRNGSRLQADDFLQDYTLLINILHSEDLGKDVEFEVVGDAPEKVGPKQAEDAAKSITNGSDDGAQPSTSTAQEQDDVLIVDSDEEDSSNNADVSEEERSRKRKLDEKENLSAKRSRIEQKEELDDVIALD
Chain of Nonstructural protein 1 (Q194T2 whole entry): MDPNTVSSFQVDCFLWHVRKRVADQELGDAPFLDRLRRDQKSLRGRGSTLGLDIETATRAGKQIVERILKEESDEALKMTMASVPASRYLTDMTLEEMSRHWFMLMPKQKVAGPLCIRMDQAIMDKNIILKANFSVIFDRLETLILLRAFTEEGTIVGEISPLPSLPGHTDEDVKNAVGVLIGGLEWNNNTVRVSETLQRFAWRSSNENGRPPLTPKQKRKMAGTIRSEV

Structure (SMILES): CN(Cc1ccccn1)Cc1nc(-c2ccc(Cl)cc2)no1
- IC50 [1]: > 50 µM (not active)
- IC50 [2]: > 50 µM (inactive)

Structure (SMILES): Clc1ccc(-c2noc(CSc3nnc(Cc4cccs4)n3-c3ccccc3)n2)cc1
- IC50 [3]: 2.67 µM (active)

Structure (SMILES): COc1ccc2nc3ccccc3nc2c1N
- AC50 [4]: 40.1 µM (active)
- IC50 [2]: > 50 µM (inactive)
- IC50 [5]: 32.5 µM (active)
- EC50 [6]: 22.1 µM (active)

Structure (SMILES): O=C(Nc1ccc(Br)cc1)c1ccc(N2C(=O)C3CC=C(Cl)CC3C2=O)cc1 (configuration not stated)
- IC50 [7]: 49.7 µM (active)

Structure (SMILES): CC1=C(C(=O)OCC2CCCO2)C(c2ccc(C)o2)C2=C(O)CC(c3ccc(F)cc3)CC2=N1 (configuration not stated)
- IC50 [2]: > 50 µM (inactive)

Structure (SMILES): N=C1S/C(=C\c2cn[nH]c2-c2ccc(F)cc2)C(=O)N1c1ccccc1F
- EC50 [8]: 8.92 µM (active)
- EC50 [9]: > 120 µM (not active)
- EC50 [10]: 4.49 µM (active)
- IC50 [3]: < 0.5 µM (active)
- EC50 [11]: > 150 µM (not active)
- EC50 [12]: 38.9 µM (active)
- CC50 [13]: 20.2 µM (active)

Structure (SMILES): CC(Oc1ccccc1)c1nnc(N)s1 (configuration not stated)
- AC50 [14]: 53 µM (active)

Structure (SMILES): O=C(O)c1ccc(-c2ccccc2Cl)o1
- IC50 [15]: > 100 µM (not active)
- IC50 [16]: > 100 µM (inactive)

Structure (SMILES): CCOc1ccc(C)cc1S(=O)(=O)Nc1cccnc1
- IC50 [15]: > 10 µM (inconclusive)
- IC50 [16]: 0.858 µM (active)

Structure (SMILES): Cc1cc(C(=O)NCCc2ccc(O)c(O)c2)oc1C
- IC50 [16]: 57.3 µM (active)
